Data published in ChEMBL document CHEMBL1201862, “PubChem BioAssay data set” (2004).
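Cultured in 96-well plates, cells were exposed to test compound for 48 hours across five concentrations. Here, GI50 denotes the concentration required for 50% inhibition of growth.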 Activity calls are given as the source filed them. Rule as the data show it: active = GI50 up to about 1.1 µM and inactive = higher.

Tests used:
Assay in all cases: inhibition of tumour cell growth, NCI panel, 48 h
COLO 205 = test system: COLO 205
UO-31 = test system: UO-31
SF-539 = test system: SF-539
OVCAR-8 = test system: OVCAR-8
LOX IMVI = test system: LOX IMVI
EKVX = test system: EKVX
A498 = test system: A498
OVCAR-5 = test system: OVCAR-5
SF-268 = test system: SF-268
SW-620 = test system: SW-620
NCI-H23 = test system: NCI-H23
SNB-19 = test system: SNB-19
SNB-75 = test system: SNB-75
RXF 393 = test system: RXF 393
A549 = test system: A549
HOP-62 = test system: HOP-62
SK-OV-3 = test system: SK-OV-3
UACC-62 = test system: UACC-62
NCI-H226 = test system: NCI-H226

Measured: GI50

COc1cc2c3cc1Oc1c(O)c(OC)cc4c1C(Cc1ccc(O)c(c1)Oc1ccc(cc1)CC3N(C)CC2)N(C)CC4 (configuration not stated)
inactive: COLO 205 19.5 µM | UO-31 15.8 µM | SF-539 2.46 µM | OVCAR-8 14.3 µM | LOX IMVI 3.01 µM | EKVX 21.9 µM | A498 18.2 µM | OVCAR-5 22.7 µM | SF-268 16.8 µM | SW-620 4.44 µM | NCI-H23 23.7 µM | SNB-19 26 µM | SNB-75 15 µM | RXF 393 2.44 µM | A549 17.6 µM | HOP-62 18.7 µM | SK-OV-3 23.3 µM | UACC-62 23.2 µM | NCI-H226 21.4 µM

c1ccc(N2CCN(CCCN3CCc4c([nH]c5ccccc45)C3c3cccnc3)CC2)cc1 (configuration not stated)
inactive: COLO 205 20.8 µM | UO-31 > 100 µM | SF-539 83.9 µM | OVCAR-8 > 100 µM | LOX IMVI 41.2 µM | EKVX > 100 µM | A498 > 100 µM | OVCAR-5 > 100 µM | SW-620 > 100 µM | NCI-H23 > 100 µM | SNB-19 > 100 µM | SNB-75 > 100 µM | RXF 393 > 100 µM | A549 > 100 µM | HOP-62 > 100 µM | SK-OV-3 > 100 µM | UACC-62 > 100 µM | NCI-H226 > 100 µM

CCc1cccc(CC)c1NC1=CC(=O)C(=O)c2ccccc21
inactive: COLO 205 > 100 µM | UO-31 18.7 µM | SF-539 19.5 µM | OVCAR-8 16.7 µM | LOX IMVI 9.84 µM | EKVX 14.1 µM | A498 22.3 µM | OVCAR-5 17.1 µM | SF-268 22.5 µM | SW-620 16.5 µM | NCI-H23 1.49 µM | SNB-19 23 µM | SNB-75 22.8 µM | RXF 393 23.9 µM | A549 18.6 µM | HOP-62 19.5 µM | SK-OV-3 31.6 µM | UACC-62 14 µM | NCI-H226 23 µM

COC(=O)CCC(=O)CC(=O)C1=NS(=O)(=O)c2nc(S(N)(=O)=O)c(Cl)cc2N1
inactive: COLO 205 > 100 µM | UO-31 > 100 µM | SF-539 > 100 µM | OVCAR-8 > 100 µM | LOX IMVI 70.5 µM | EKVX > 100 µM | A498 > 100 µM | OVCAR-5 > 100 µM | SF-268 > 100 µM | NCI-H23 > 100 µM | SNB-19 > 100 µM | SNB-75 > 100 µM | RXF 393 > 100 µM | A549 > 100 µM | HOP-62 > 100 µM | SK-OV-3 > 100 µM | UACC-62 > 100 µM | NCI-H226 > 100 µM

CCOC(=O)C(C(=O)OCC)c1ccc([N+](=O)[O-])o1
inactive: COLO 205 3.27 µM | UO-31 15.6 µM | SF-539 19.9 µM | OVCAR-8 5.24 µM | LOX IMVI 3.17 µM | EKVX 18.7 µM | A498 > 10 µM | OVCAR-5 18.2 µM | SF-268 25.4 µM | SW-620 3.39 µM | NCI-H23 17.6 µM | SNB-19 > 100 µM | SNB-75 20 µM | RXF 393 12.4 µM | A549 21.5 µM | HOP-62 > 50 µM | SK-OV-3 62.2 µM | UACC-62 17.9 µM | NCI-H226 21.9 µM

Cc1ccc(N2C(=O)N(c3ccc(C)cc3)C3(SC=NN3C)C2=O)cc1 (configuration not stated)
inactive: COLO 205 91 µM | UO-31 42 µM | SF-539 > 100 µM | OVCAR-8 > 100 µM | LOX IMVI 32.3 µM | EKVX > 100 µM | A498 73.1 µM | SF-268 > 100 µM | SW-620 > 100 µM | NCI-H23 35.2 µM | SNB-19 > 100 µM | SNB-75 > 100 µM | RXF 393 59.6 µM | A549 50.5 µM | HOP-62 > 100 µM | SK-OV-3 > 100 µM | UACC-62 74 µM | NCI-H226 72.8 µM

Oc1cc(O)c2ccc(-c3ccc(O)c(O)c3)[o+]c2c1
inactive: UO-31 > 100 µM | SF-539 > 100 µM | OVCAR-8 > 100 µM | LOX IMVI > 100 µM | EKVX > 100 µM | A498 > 100 µM | OVCAR-5 > 100 µM | SF-268 > 100 µM | SW-620 > 100 µM | NCI-H23 > 100 µM | SNB-19 > 100 µM | SNB-75 > 100 µM | RXF 393 63.8 µM | A549 > 100 µM | HOP-62 > 100 µM | SK-OV-3 > 100 µM | UACC-62 > 100 µM | NCI-H226 > 100 µM

N/C(=N\O)N/N=C/c1ccc2c(c1)OCCO2
inactive: COLO 205 7.28 µM | UO-31 8.65 µM | SF-539 17.1 µM | OVCAR-8 8.49 µM | LOX IMVI 8.09 µM | EKVX 9.27 µM | A498 27.2 µM | OVCAR-5 4.72 µM | SF-268 4.81 µM | SW-620 28.2 µM | NCI-H23 25.6 µM | SNB-19 9.82 µM | SNB-75 29.9 µM | RXF 393 27.9 µM | A549 4.7 µM | HOP-62 19.8 µM | SK-OV-3 34 µM | NCI-H226 4.08 µM
